Results taken from patent publication US8987258B2 (priority 2008, dated 2015).

Molecular target: T1, SIRT1 (Homo sapiens, UniProt Q96EB6)
T1 sequence (Q96EB6 1-747): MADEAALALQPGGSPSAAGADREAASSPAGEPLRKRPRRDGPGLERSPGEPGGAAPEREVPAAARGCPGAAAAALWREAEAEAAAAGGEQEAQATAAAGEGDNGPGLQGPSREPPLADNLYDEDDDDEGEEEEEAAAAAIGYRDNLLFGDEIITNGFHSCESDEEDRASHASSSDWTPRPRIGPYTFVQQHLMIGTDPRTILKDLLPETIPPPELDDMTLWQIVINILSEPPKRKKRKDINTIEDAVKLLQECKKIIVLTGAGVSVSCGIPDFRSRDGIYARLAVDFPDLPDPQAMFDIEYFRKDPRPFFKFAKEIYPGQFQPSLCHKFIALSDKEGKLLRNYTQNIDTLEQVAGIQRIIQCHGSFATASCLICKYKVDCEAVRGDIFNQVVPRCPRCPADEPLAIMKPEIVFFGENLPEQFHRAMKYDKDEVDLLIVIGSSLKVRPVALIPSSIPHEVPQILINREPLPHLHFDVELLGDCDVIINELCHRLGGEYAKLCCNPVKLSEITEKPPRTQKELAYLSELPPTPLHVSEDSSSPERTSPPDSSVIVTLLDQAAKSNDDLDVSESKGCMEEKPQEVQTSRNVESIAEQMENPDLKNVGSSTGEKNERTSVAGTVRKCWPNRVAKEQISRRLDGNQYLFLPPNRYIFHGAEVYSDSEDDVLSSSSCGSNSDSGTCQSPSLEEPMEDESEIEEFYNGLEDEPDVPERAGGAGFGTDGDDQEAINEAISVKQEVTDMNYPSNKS
Assay: Mass spectrometry based SIRT1 deacetylase activation assay
Type: biochemical
Details: for EC1.5 μM: 0.5 μM peptide substrate, 120 μM βNAD+, 10 nM SIRT1, 25 min, 25° C.; for Emax: 25 min, mass spectrometry assay, read-out: % Fold Act. (percent maximum fold activation)

| Structure (SMILES) | EC1.5 μM | Emax |
| --- | --- | --- |
| Cc1cnc(NC(=O)c2cccc3c(=O)cc(-c4ccccc4Cl)oc23)s1 [Compound 270] | C (EC1.5>25 μM) | < 200% |
| CS(=O)(=O)c1ccccc1-c1cc(=O)c2cccc(NC(=O)c3ccccn3)c2o1 [Compound 241] | B (EC1.5 1-25 μM) | > 200% |
| O=C(Nc1cccc2c(=O)cc(-c3ccccc3C(F)(F)F)oc12)c1cocn1 [Compound 272] | B (EC1.5 1-25 μM) | > 200% |
| O=C(Nc1cccc2c(=O)cc(-c3cc(F)ccc3Cl)oc12)c1cnccn1 [Compound 300] | C (EC1.5>25 μM) | < 200% |
| O=C(Nc1cccc2c(=O)cc(-c3ccccc3Br)oc12)c1cscn1 [Compound 231] |  | > 200% |
| O=C(Nc1cccc2c(=O)cc(-c3ccccc3F)oc12)c1cnccn1 [Compound 278] | C (EC1.5>25 μM) | < 200% |
| O=C(Nc1cccc2c(=O)cc(-c3ccc(C(F)(F)F)cc3)oc12)c1cscn1 [Compound 228] | C (EC1.5>25 μM) | < 200% |
| O=C(Nc1ccccn1)c1cccc2c(=O)cc(-c3cccc(C(F)(F)F)c3)oc12 [Compound 207] | C (EC1.5>25 μM) | < 200% |
| Cc1cnc(NC(=O)c2cccc3c(=O)cc(-c4ccc(Br)cc4)oc23)s1 [Compound 223] |  | < 200% |
| O=C(Nc1cccc2c(=O)cc(-c3ccccc3C(F)(F)F)oc12)c1cncs1 [Compound 267] | B (EC1.5 1-25 μM) | > 200% |
| CS(=O)(=O)c1ccccc1-c1cc(=O)c2cccc(NC(=O)c3cscn3)c2o1 [Compound 266] | B (EC1.5 1-25 μM) | < 200% |
| O=c1cc(-c2ccccc2C(F)(F)F)oc2c(NS(=O)(=O)c3cccnc3)cccc12 [Compound 326, N-(4-oxo-2-(2-(trifluoromethyl)phenyl)-4H-chromen-8-yl)pyridine-3-sulfonamide] | C (EC1.5>25 μM) | < 200% |
| O=C(Nc1cccc2c(=O)cc(-c3ccccc3Cl)oc12)c1cccc(CN2CCCC2)c1 [Compound 333] | B (EC1.5 1-25 μM) | > 200% |
| Cc1cnc(NC(=O)c2cccc3c(=O)cc(-c4ccccc4C(C)C)oc23)s1 [Compound 285] | C (EC1.5>25 μM) | < 200% |
| CC(C)c1ccccc1-c1cc(=O)c2cccc(NC(=O)c3cnccn3)c2o1 [Compound 286] | A (EC1-5<1.0) | > 200% |
| O=C(Nc1cccc2c(=O)cc(-c3ccc(N4CCOCC4)cc3)oc12)c1cscn1 [Compound 229] | C (EC1.5>25 μM) | < 200% |
| Cc1cnc(NC(=O)c2cccc3c(=O)cc(-c4ccccc4C(F)F)oc23)s1 [Compound 284] | C (EC1.5>25 μM) | < 200% |
